Reference: patent US11479587B2, “Cationic intrinsically disordered antimicrobial peptides” (priority 2016, dated 2022)
≈ marks a conversion by molar mass, not a printed value. Where “and” joins values, the source holds several entries; their conditions need not be identical. Equal values may be shown once. Residues, ends and D or L forms follow the SMILES beside them.

Experiments:
[1] = test system: methicillin-resistant S. aureus strain (ATCC 43300); format: cell-based, Staphylococcus aureus; conditions: ATCC 43300, 18 h
[2] = test system: multidrug-resistant K. pneumoniae ATCC 700603; format: cell-based, Klebsiella pneumoniae
Protocol: The Gram-negative opportunistic pathogen K. pneumoniae is responsible for a spectrum of community-acquired and nosocomial infections and typically infects patients with indwelling medical devices, on which this microorganism is able to grow as a biofilm.
A sample of each culture was then diluted 40-fold in fresh broth and incubated at 37° C. for 1.5-3 h. […] All the plates were covered and incubated at 37° C. for 18 h.
(§1) Inhibition of bacterial growth was determined using resazurin as a marker for cell viability. Resazurin was added to each well, at 0.001% final concentration, and plates incubated at 37° C. for 2 h. Fluorescence intensity was measured, using F (top read), ex 560/10 nm, em 590/10 nm, using a Tecan M1000 Pro monochromator plate reader.

[3] = Cytotoxicity (resazurin) assay
In short: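 CC50 values were derived by fitting concentration-dependent percentage cytotoxicity to a dose–response function. The read-out was resazurin fluorescence (ex 560, em 590 nm; 100 μM, 3 h) after 20 h compound treatment of HEK293 cells at 37 °C in DMEM with 10% FBS.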

Hemolysis assay = format: cell-based; conditions: for HC50 at 1 h: human, washed erythrocytes from EDTA-blood, pH 7.4
In short: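 Washed EDTA-blood erythrocytes in 5% PBS, pH 7.4, were rotated 1 h at 37° C with peptides at 0, 3, 10, 30, 60 μm. Hemoglobin release read at 540 nm as % of 0.1% Triton X-100 hemolysis; CC50 from dose-response curve of triplicates.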

A. baumannii ATCC 19606 = format: cell-based, Acinetobacter baumannii; conditions: ATCC 19606, 2 h
Protocol: as §1

E. coli ATCC 25922 = format: cell-based, Escherichia coli; conditions: ATCC 25922, 2 h
Protocol: as §1

P. aeruginosa ATCC 27853 = format: cell-based, Pseudomonas aeruginosa; conditions: ATCC 27853, 2 h
Protocol: as §1

C. albicans ATCC 928 = conditions: for MIC, C. albicans ATCC 90028: ATCC 928; for MIC: ATCC 928, 18 h, pH 7.4
P. aeruginosa ATCC 10145 = assay: CFU-assay, P. aeruginosa-cidal activity; format: cell-based, Pseudomonas aeruginosa
S. aureus ATCC 6538 = assay: CFU-assay, S. aureus-cidal activity; format: cell-based, Staphylococcus aureus
In short: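 Bactericidal CFU-assay in nutrient-deficient 10 mM sodium phosphate buffer pH 5.5 with 0.25% glucose, counting surviving colonies across twofold peptide dilutions from 300 μg/ml to 19 ng/ml. Output is minimal bactericidal concentration (e.g. MBC90, MBC100); some peptides also tested at pH 7.0.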

[4] = test system: Streptococcus pneumoniae ATCC 33400; assay: CFU-assay, antimicrobial activity spectrum; format: cell-based; conditions: pH 7.3, 0.25% glucose
[5] = test system: Streptococcus pyogenes ATCC 12344; assay: CFU-assay, antimicrobial activity spectrum; format: cell-based
[6] = test system: Escherichia coli ATCC11775; assay: CFU-assay, antimicrobial activity spectrum; format: cell-based
[7] = test system: Burkholderia cepacia ATCC 25416; assay: CFU-assay, Burkholderia cepacia-cidal activity; format: cell-based
[8] = test system: Staphylococcus epidermidis ATCC 14990; assay: CFU-assay, antimicrobial activity spectrum; format: cell-based; conditions: pH 5.5, 0.25% glucose
[9] = test system: Klebsiella pneumoniae ATCC 13883; assay: CFU-assay, Klebsiella pneumoniae-cidal activity; format: cell-based
[10] = test system: Salmonella typhimurium ATCC 13311; assay: CFU-assay, antimicrobial activity spectrum; format: cell-based
[11] = test system: E. coli ribosomal proteins; assay: Immunodotblot binding to HPLC-separated ribosomal proteins; conditions: 10 μg/ml, 4° C. overnight, dot blot
Text: The question whether CIDAMP-dependent morphological changes in bacteria are direct or indirect was addressed by testing the hypothesis that CIDAMPs directly bind to ribosomes and ribosomal proteins. For this purpose, ribosomes of E. coli were separated and partially purified by SulfoLink®-coupling resin-chromatography (Maguire et al., 2008, RNA, 14, 188-195) followed by reversed phase high performance liquid chromatography (HPLC) using an Aeris 3.6 μm C18 widepore RP-HPLC column (Phenomenex) and an increasing gradient of acetonitrile (ACN, max.: 80% v/v) in aqueous 0.1% trifluoroacetic acid.
Aliquots of each HPLC fraction were lyophilized, the residues dissolved in 5 μl water each and then applied to a nitrocellulose membrane. After blocking with 5% bovine serum albumin in PBS and washing with PBS, biotinylated rhHRNR2591-2694, a 103 amino acid fragment of hornerin, (10 μg/ml) was added and incubated at 4° C. overnight. After 4-times washing, Strep-Tactin® (1:200; iba lifescience) in PBS was added, incubated for 1 h and then, after 6 times washing with PBS, substrate was added and the blots developed.

[12] = standard conditions at pH 7.4, activity at concentration <32 pg/ml

## CCCCCCCCCCCCCCCC(=O)NCC(=O)N[C@@H](CCCNC(=N)N)C(=O)N[C@@H](CCCNC(=N)N)C(=O)NCC(=O)NCC(=O)N[C@@H](CCCNC(=N)N)C(=O)NCC(=O)NCC(=O)N[C@@H](CCCNC(=N)N)C(=O)NCC(=O)N[C@@H](CCCNC(=N)N)C(=O)NCC(=O)N[C@@H](CCCNC(=N)N)C(=O)O [Pal-GR13] (HELM PEPTIDE1{[CCCCCCCCCCCCCCCC(=O)[*:2]].G.R.R.G.G.R.G.G.R.G.R.G.R}$$$$V2.0)
[1]
  MIC, S. aureus ATCC 43300: ≥0.25 µg/mL
[2]
  MIC, K. pneumoniae ATCC 700603: ≥16 µg/mL
[3]
  CC50: > 32 µg/mL and > 20.1 µM
Hemolysis assay
  HC50: 100 µg/mL
  HC50 at 1 h: 62 µM
A. baumannii ATCC 19606
  MIC, A. baumannii ATCC 19606: ≥2 µg/mL
E. coli ATCC 25922
  MIC, E. coli ATCC 25922: ≥4 µg/mL
P. aeruginosa ATCC 27853
  MIC, P. aeruginosa ATCC 27853: ≥8 µg/mL
C. albicans ATCC 928
  MIC, C. albicans ATCC 90028: ≥4 µg/mL
  MIC: 1 to 32 µg/mL
C. neoformans
  MIC, C. neoformans ATCC 208821: ≥0.25 µg/mL

## CCCCCCCCCCCCCCCC(=O)NCC(=O)N[C@H](CCCNC(=N)N)C(=O)N[C@H](CCCNC(=N)N)C(=O)NCC(=O)NCC(=O)N[C@H](CCCNC(=N)N)C(=O)NCC(=O)NCC(=O)N[C@H](CCCNC(=N)N)C(=O)NCC(=O)N[C@H](CCCNC(=N)N)C(=O)NCC(=O)N[C@H](CCCNC(=N)N)C(=O)O [D-Pal-GR13] (HELM PEPTIDE1{[CCCCCCCCCCCCCCCC(=O)[*:2]].G.[dR].[dR].G.G.[dR].G.G.[dR].G.[dR].G.[dR]}$$$$V2.0)
[1]
  MIC, S. aureus ATCC 43300: ≥2 µg/mL
[2]
  MIC, K. pneumoniae ATCC 700603: ≥32 µg/mL
[3]
  CC50: > 32 µg/mL and > 20.1 µM
Hemolysis assay
  HC50: 65 µg/mL
  HC50 at 1 h: 24.5 µM
A. baumannii ATCC 19606
  MIC, A. baumannii ATCC 19606: ≥8 µg/mL
E. coli ATCC 25922
  MIC, E. coli ATCC 25922: ≥8 µg/mL
P. aeruginosa ATCC 27853
  MIC, P. aeruginosa ATCC 27853: ≥16 µg/mL
C. albicans ATCC 928
  MIC, C. albicans ATCC 90028: ≥8 µg/mL
C. neoformans
  MIC, C. neoformans ATCC 208821: ≥2 µg/mL

## CCCCCCCCCCCCCCCC(=O)N[C@@H](CO)C(=O)N[C@@H](Cc1c[nH]cn1)C(=O)N[C@@H](Cc1c[nH]cn1)C(=O)N[C@@H](CCCNC(=N)N)C(=O)N[C@@H](CS)C(=O)N[C@@H](CS)C(=O)N[C@@H](CCCNC(=N)N)C(=O)N[C@@H](CO)C(=O)N[C@@H](Cc1c[nH]cn1)C(=O)N[C@@H](CCCNC(=N)N)C(=O)N[C@@H](CS)C(=O)N[C@@H](CCCNC(=N)N)C(=O)N[C@@H](CCCNC(=N)N)C(=O)O [Pal-LCE3B56-68] (HELM PEPTIDE1{[CCCCCCCCCCCCCCCC(=O)[*:2]].S.H.H.R.C.C.R.S.H.R.C.R.R}$$$$V2.0)
P. aeruginosa ATCC 10145; pH 5.5
  P. aeruginosa MBC90: 0.088 µM
  P. aeruginosa MBC100: 0.176 µM
P. aeruginosa ATCC 10145; pH 5.5, 0.25% glucose
  MBC90: 0.075 µg/mL (≈ 0.0388 µM)
  MBC100: 0.3 µg/mL (≈ 0.155 µM)
S. aureus ATCC 6538; pH 5.5
  S. aureus MBC90: 0.011 µM
  S. aureus MBC100: 0.078 µM
S. aureus ATCC 6538; pH 5.5, 0.25% glucose
  MBC90: <0.019 µg/mL
  MBC100: 0.15 µg/mL (≈ 0.0776 µM)
[4]
  MBC90: 0.59 µg/mL (≈ 0.305 µM)
  MBC100: 2.35 µg/mL (≈ 1.22 µM)
[5]; pH 6.0, 0.25% glucose
  MBC90: 0.15 µg/mL (≈ 0.0776 µM)
  MBC100: 0.59 µg/mL (≈ 0.305 µM)
[5]; pH 7.3, 0.25% glucose
  MBC90: 0.15 µg/mL (≈ 0.0776 µM)
  MBC100: 0.3 µg/mL (≈ 0.155 µM)
[6]; pH 5.5, 0.25% glucose
  MBC90: 0.3 µg/mL (≈ 0.155 µM)
[6]; pH 7.3, 0.25% glucose
  MBC90: 0.59 µg/mL (≈ 0.305 µM)
  MBC100: 1.18 µg/mL (≈ 0.611 µM)
[7]; pH 5.5, 0.25% glucose
  MBC90: >300 µg/mL
  MBC100: >300 µg/mL
[7]; pH 7.3
  MB100: 4.9 µM
  MBC90: 2.4 µM
[7]; pH 7.3, 0.25% glucose
  MBC90: 4.7 µg/mL
  MBC100: 9.38 µg/mL (≈ 4.85 µM)
[7]; pH 7.3, 0.25% glucose, listed as palmitoyl-LCE3B56-68
  MBC100: 9.375 µg/mL (≈ 4.85 µM)
[8]
  MBC90: 0.3 µg/mL (≈ 0.155 µM)
  MBC100: 0.3 µg/mL (≈ 0.155 µM)
[9]; pH 5.5
  MBC90: 0.052 µM
  MBC100: 4.9 µM
[9]; pH 5.5, 0.25% glucose
  MBC90: 0.15 µg/mL
  MBC100: 9.375 µg/mL
[9]; pH 7.3, 0.25% glucose
  MBC90: 2.35 µg/mL
  MBC100: 4.7 µg/mL
[10]; pH 5.5
  MBC90: 0.02 µM
  MBC100: 0.155 µM
[10]; pH 5.5, 0.25% glucose
  MBC90: 0.038 µg/mL
  MBC100: 0.3 µg/mL
[10]; pH 7.3, 0.25% glucose
  MBC90: 1.18 µg/mL
  MBC100: 2.35 µg/mL
[1]
  MIC, S. aureus ATCC 43300: ≥16 µg/mL
[3]
  CC50: > 32 µg/mL and > 16.6 µM
Hemolysis assay
  CC50: > 100 µg/mL
  HC50 at 1 h: > 78 µM
C. albicans ATCC 928
  MIC, C. albicans ATCC 90028: ≥1 µg/mL
  MIC: 1 to 32 µg/mL
C. albicans ATCC 928; [12]
  Antifungal activity, C. albcans ATCC90028: A (A-active)
C. neoformans
  MIC, C. neoformans ATCC 208821: ≥0.25 µg/mL
C. neoformans; [12]
  Antifungal activity, C. neoformans ATCC 208821: A (A-active)

B1: biotinylated rhHRNR2591-2694: biotinylated rhHRNR2591-2694, a 103 amino acid fragment of hornerin (protein)
chain: SQHGSGSGHSSGYGQHGSRSGQSSRGERHGSSSGSSSHYGQHGSGSRQSSGHGRQGSGSGQSPSRGRHGSGLGHSSSHGQHGSGSGRSSSRGPYESRLGHSSVF
modifications: biotinylated (position not given)
notes: biotinylated rhHRNR2591-2694, a 103 amino acid fragment of hornerin
[11]
  binding to ribosomal proteins (in words): specific binding
